“And” between values parts separate entries of the source, which are not always exact repeats. Equal values may be shown once. Residues, ends and D or L forms follow the SMILES beside them.
Experiments:
[1] = AF-16 concentration in plasma after intranasal or i.v. administration (Bachem AF-16 Enzyme Immunoassay); format: in vivo, rat; conditions: for Concentration of AF-16 in plasma: experimental rats (cryogenic brain injury); for Concentration of AF-16 in plasma / level at 0.5 h: sample 30 min after dosing, enzyme immunoassay, mean ± SEM; for level at 0.5 h: male, Sprague-Dawley, rat, plasma, control (uninjured) rats
Procedure: (§1) The test protocol was approved by the Regional Animal Experiments Ethical Committee and performed in accordance with guidelines for animal experiments (EC Directive 86/609/EEC). Male Sprague–Dawley rats, 180 ± 20 g body weight (Nova-SCB, Sollentuna, Sweden) were used. The rats were allowed a week for general adaptation in their cages before any form of experimental procedure was performed. All rats had free access to water and pelleted food during the whole experimental period. The temperature and air ventilation in the animal quarters were monitored according to standard procedures.
(§2) The operation procedure started with general anaesthesia via inhalation of Isoflurane (4 % induction, 1.5–2 % maintenance in air), after which the anaesthetised rat was positioned on the abdomen on a heating pad. The body temperature was monitored via a rectal thermo-coupled probe, and a heated blanket was placed underneath the rat in order to keep the temperature at 37 °C. The head was shaved and the skin washed with 70 % alcohol, followed by a subcutaneous injection of Marcaine. A 3– to 4-cm-long midline incision was made through the skin and fascia on the skull vault. The skull bone was freed from adherent connective tissue and a copper rod (144 g) with a tip diameter of 4 mm was immersed in liquid nitrogen and then applied to the right parietal bone for 90 s. […] The resulting lesion volume was calculated after termination of the experiments (see below). Uninjured rats were used as controls.
(§3) Rats were anaesthetised with Isoflurane 24 h after the cryogenic brain injury. The rats were given a single dose of 25 μl of AF-16 (2,000 μg/ml in phosphate buffered saline, PBS) or ^14C-AF-16 in each nostril and were then placed on their backs to make sure the AF-16 solution was absorbed appropriately. After 5–8 min they had recovered from anaesthesia, were fully awake and moved freely in the cage. Control, injured rats received the same volume of vehicle (PBS) only. ICP recordings for statistical calculations were collected for a 20-min-long period, starting after the animals were fully awake and the ICP values were stable and back to pre-anaesthesia levels.
(§4) The collection of blood and CSF was done in a separate set of experiments. ^14C-Labelled or unlabelled AF-16 was given by intranasal (see above) or i.v. administration via the penis vein (25 μl in a volume of 0.5 ml). For measurement of blood concentration of AF-16 the heart was punctured from the right thoracic cavity with an O.D. 1.22/60 mm injection needle. When 10–12 ml of blood had been collected, the thorax was opened and the rats were terminated by removing the heart. Immediately after termination, the rats were placed on the abdomen. For measurement of CSF levels of AF-16 the dura over cisterna magna was micro-surgically exposed by dissecting the neck muscles laterally, a procedure which uncovers the midline. The dura was subsequently punctured by a Neoflon i.v. cannula, outer diameter 0.6 mm, length 19 mm. After removing the needle from the cannula, 50–100 μl of CSF could be aspired without being contaminated with blood.
A Bachem AF-16 Enzyme Immunoassay kit (item S-1403) was used. Heparin-treated blood samples were mixed with an equal volume of Alsevers citrate solution (glucose, 0.1 M, sodium citrate 2-hydrate, 0.03 M, sodium chloride, 0.07 M). The blood samples were stored frozen for up to 1 month at −20 °C. The laboratory procedure followed Protocol III in the Bachem kit manual, but some critical points should be emphasised. The standard AF-16 was dissolved and diluted in normal blood plasma; the standards S1-S6 (0.2–200 ng/ml, corresponding to 0.114–114 nM) and normal plasma S0 were distributed into smaller aliquots (e.g. 200 μl) and frozen at −20 °C until use. The standard is not stable in buffered saline at these concentrations. […]

[2] = AF-16 concentration in CSF after intranasal or i.v. administration (estimated from radioactivity of 14C-AF-16); format: in vivo, rat; conditions: for Concentration of AF-16 in CSF: estimated from 14C radioactivity, mean ± SEM
Procedure: as §1, §2, §3, §4
A Bachem AF-16 Enzyme Immunoassay kit (item S-1403) was used. Heparin-treated blood samples were mixed with an equal volume of Alsevers citrate solution (glucose, 0.1 M, sodium citrate 2-hydrate, 0.03 M, sodium chloride, 0.07 M). The blood samples were stored frozen for up to 1 month at −20 °C. The laboratory procedure followed Protocol III in the Bachem kit manual, but some critical points should be emphasised. […]

[3] = Side effects of AF-16 treatment in animals; format: in vivo; conditions: experimental conditions in animals
[4] = Autoradiography of 14C-AF-16 distribution in the brain after intranasal administration; format: in vivo, rat; conditions: control uninjured rats (n = 10), one intranasal dose, 30 min, 10 μm cryosections, X-ray film
Procedure: The distribution of ^14C-AF-16 in the brain after intranasal administration was investigated in a separate set of experiments. Control, uninjured rats (n = 10) received one intranasal dose of ^14C-AF-16. Thirty minutes later the rats were terminated and the brains were dissected out as described above. Frontal slices were cut, about 3 mm thick, immersed in 10 % sucrose in PBS overnight and then frozen in liquid nitrogen. Cryosections, cut at 10 μm, were prepared, air dried and exposed to Biomax AR autoradiography film (Kodak).

| Change of plasma level between 15 and 30 min ([1]; normal rats, intranasal 0.3 μmol/kg, p < 0.03) | Decrease of AF-16 in CSF between 15 and 30 min ([2]; normal rats, intranasal 0.3 μmol/kg) | Compound | Concentration of AF-16 in plasma relative to CSF ([1]; control and injured rats, 30 min after intranasal or i.v. administration) | Concentration of AF-16 in plasma ([1]; i.v. via penis vein (25 μl in 0.5 ml), n = 7) | Concentration of AF-16 in plasma ([1]; intranasal (25 μl of 2,000 μg/ml in PBS in each nostril), n = 9) | level at 0.5 h ([1]; inhaled or intranasal, 100 ug per rat, intranasal (25 μl of 2,000 μg/ml in PBS in each nostril), n = 9) | level at 0.5 h ([1]; iv, 25 ul in a volume of 0.5 ml, i.v. via penis vein (25 μl in 0.5 ml), n = 7) | Concentration of AF-16 in plasma relative to CSF ([1]; normal rats, intranasal 0.3 μmol/kg in 25 μl, 15 and 30 min after deposition) | Concentration of AF-16 in CSF ([2]; control (uninjured) rats, i.v., CSF from cisterna magna 30 min after dosing, n = 6) | Concentration of AF-16 in CSF ([2]; control (uninjured) rats, intranasal, CSF 30 min after dosing, n = 9) | Concentration of AF-16 in CSF ([2]; experimental rats (cryogenic brain injury), i.v., CSF from cisterna magna 30 min after dosing, n = 7) | Concentration of AF-16 in CSF ([2]; experimental rats (cryogenic brain injury), intranasal, CSF 30 min after dosing, n = 9, p = 0.01 vs control) | Side effects of treatment [3] | Distribution in the brain by autoradiography [4] |
| --- | --- | --- | --- | --- | --- | --- | --- | --- | --- | --- | --- | --- | --- | --- |
| decreased significantly | not statistically significant | CC(C)C[C@H](NC(=O)CNC(=O)[C@@H](NC(=O)[C@H](CC(N)=O)NC(=O)[C@H](CC(N)=O)NC(=O)[C@H](CCC(=O)O)NC(=O)[C@@H]1CCCN1C(=O)[C@H](CC(N)=O)NC(=O)[C@H](CO)NC(=O)[C@H](CCCNC(=N)N)NC(=O)[C@@H](NC(=O)[C@H](CCCCN)NC(=O)[C@H](CO)NC(=O)[C@H](Cc1c[nH]cn1)NC(=O)[C@H](CS)NC(=O)[C@@H](N)C(C)C)[C@@H](C)O)C(C)C)C(=O)O [AF-16] (H-VCHSKTRSNPENNVGL-OH) | about ten-times higher in plasma than in CSF | 14.5 ± 0.9 ng/mL | 8.7 ± 0.5 ng/mL | 7.8 ± 0.7 ng/mL | 14.7 ± 0.6 ng/mL | about ten-times higher in plasma than in CSF | 1.1 ± 0 ng/mL | 0.6 ng/mL and 0.6 ± 0.1 ng/mL | 1.1 ± 0.1 ng/mL | 1.3 ng/mL and 1.3 ± 0.2 ng/mL | No side effects |  |
|  |  | VCHSKTRSNPENNVGL [^14C-AF-16] |  |  |  |  |  |  |  |  |  |  |  | detected in the brain ventricles/choroid plexus |
